This note sets out measurements from US20080004272A1, “Compositions and methods for modulating gated ion channels” (PainCeptor Pharma Corporation, priority 2006, published 2008).

The structures appear in SMILES notation.

The target of the first experiment is T1, ASIC1a (Homo sapiens, UniProt P78348).
T1 sequence (P78348 1-528): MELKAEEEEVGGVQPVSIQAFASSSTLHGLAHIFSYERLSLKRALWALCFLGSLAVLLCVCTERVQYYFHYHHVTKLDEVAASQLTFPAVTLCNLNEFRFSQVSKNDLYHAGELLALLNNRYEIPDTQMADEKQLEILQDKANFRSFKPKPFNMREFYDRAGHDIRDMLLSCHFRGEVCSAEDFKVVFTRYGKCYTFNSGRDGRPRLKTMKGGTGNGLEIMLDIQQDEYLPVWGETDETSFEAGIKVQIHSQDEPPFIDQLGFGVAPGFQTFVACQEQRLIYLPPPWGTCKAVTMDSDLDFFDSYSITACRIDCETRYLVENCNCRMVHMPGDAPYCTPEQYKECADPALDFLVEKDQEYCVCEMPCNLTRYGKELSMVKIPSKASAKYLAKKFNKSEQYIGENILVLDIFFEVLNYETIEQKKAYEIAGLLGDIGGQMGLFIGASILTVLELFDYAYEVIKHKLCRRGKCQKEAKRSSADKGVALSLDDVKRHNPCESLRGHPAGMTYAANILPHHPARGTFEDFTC
In words: Two-electrode voltage clamp in Xenopus laevis oocytes (Xo), acid-induced currents. The experiment is classed as cell-based. Set-up: expressed in transfected cells; host or cells: Xenopus laevis oocytes (nuclear microinjection of expression vector such as pcDNA3). Particulars: 50 μM, Xenopus oocytes; read-out: % inh. at 50 μM (Xo). As to the method: Two-electrode voltage clamp electrophysiological assays in Xenopus laevis oocytes expressing gated ion channels are performed as follows:
Oocytes are surgically removed from adult Xenopus laevis and treated for 2 h at room temperature with 1 mg/ml type I collagenase (Sigma) in Barth's solution under mild agitation. Selected oocytes at stage IV-V are defolliculated manually before nuclear microinjection of 2.5-5 ng of a suitable expression vector, such as pcDNA3, comprising the nucleotide sequence encoding a gated ion channel subunit protein. In such an experiment, the oocytes express homomultimeric proton-gated ion channels on their surface. In an alternate experiment, one, two, three or more vectors comprising the coding sequences for distinct gated ion channel subunits are co-injected in the oocyte nuclei. In the latter case, oocytes express heteromultimeric proton-gated ion channels. For example, ASIC2a and/or ASIC3 subunits in pcDNA3 vector are co-injected at a 1:1 cDNA ratio. After 2-4 days of expression at 19° C. in Barth's solution containing […] gentamicin and 1.8 mM CaCl2, gated ion channels are activated by applying an acidic solution (pH<7) and currents are recorded in a two electrode voltage-clamp configuration, using an OC-725B amplifier (Warner Instruments). Currents are acquired and digitized at 500 Hz on an Apple Imac G3 computer with an A/D NB-MIO-16XL interface (National Instruments) and recorded traces are post-filtered at 100 Hz in Axograph (Axon Instruments) (Neher, E. and Sakmann, B. (1976) Nature 260:799-802). Once impaled with the microelectrodes, oocytes are continuously superfused at 10-12 ml/min with a modified Ringer's solution containing 97 mM NaCl, 2 mM KCl, 1.8 mM CaCl2, and 10 mM HEPES brought to pH 7.4 with NaOH (Control Ringer). Test Ringer solution is prepared by replacing HEPES with MES and adjusting the pH to the desired acidic value. Compounds of the present invention are prepared in both the Control and Test Ringer solutions and applied to oocytes at room temperature through a computer-controlled switching valve system. Osmolarity of all solutions is adjusted to 235 mOsm with choline chloride. Similarly, recordings can also be acquired in an automated multichannel oocytes system as the OpusExpress™ (Molecular Devices, Sunnyvale, USA).
FIGS. 1A and 2A illustrate the inhibitory effects of Compounds 203 and 206 on acid-induced activation of recombinant homomeric hASIC1a channels.
Regarding `COc1ccc(F)cc1-c1cc(C#N)c(NC(C)=O)c2c1CCN(C)C2` [Compound 195, N-[7-Cyano-5-(5-fluoro-2-methoxy-phenyl)-2-methyl-1,2,3,4-tetrahydro-isoquinolin-8-yl]-acetamide], the inhibition at 50 µM lay within 25 to 40%.

As for `CN1CCc2c(-c3ccccc3)cc3[nH]c(=O)c(=O)[nH]c3c2C1` [Compound 100], the inhibition at 50 µM is below 25%.

In the case of `CN1CCc2c(-c3ccccc3)cc(/C(N)=N/O)c(N)c2C1` [Compound 207], the inhibition at 50 µM was above 50%.

Take `CCOC(=O)N1CCc2c(Br)cc(C(=O)CCl)c(N)c2C1` [Compound 163]: the inhibition at 50 µM was below 25%.

Turning to `COc1ccc(F)cc1Nc1ccc(N)c2c1CCN(C)C2` [Compound 7], the inhibition at 50 µM was below 25%.

As for `O=C(/C=N/O)Nc1ccc(-c2ccccc2)c2c1CNCC2` [Compound 171], the inhibition at 50 µM was below 25%.

In the case of `CCOC(=O)N1CCc2c(-c3ccccc3)ccc(CN(CC(=O)O)Cc3ccccc3)c2C1` [Compound 123], the inhibition at 50 µM is below 25%.

As for `CN1CCc2c(Br)ccc(NC(=O)CCl)c2C1` [Compound 146], the inhibition at 50 µM is below 25%.

For the compound `COC(=O)CNc1ccc(-c2ccccc2)c2c1CN(C(=O)OC(C)(C)C)CC2` [Compound 167], the inhibition at 50 µM is below 25%.

Turning to `CN1CCc2c(-c3ccccc3)cc3c(c2C1)NC(=O)C3=NNC(=O)c1ccc(O)cc1O` [Compound 113], the inhibition at 50 µM is below 25%.

For `CCOC(C)O/N=C1/C(=O)Nc2c1cc(-c1cc(F)ccc1OC)c1c2CN(C)CC1` (centres unmarked) [Compound 67], the inhibition at 50 µM is below 25%.

As to `COc1ccc(F)cc1-c1cc(/C(N)=N/O)c(N)c2c1CCN(C)C2` [Compound 208], the inhibition at 50 µM was in the range of 20 to 40%.

In the case of `COc1ccc(F)cc1-c1cc(C#N)c(N(S(C)(=O)=O)S(C)(=O)=O)c2c1CCN(C)C2` [Compound 196, N-[7-Cyano-5-(5-fluoro-2-methoxy-phenyl)-2-methyl-1,2,3,4-tetrahydro-isoquinolin-8-yl]-dimethanesulfonamide], the inhibition at 50 µM is below 25%.

For `CN1CCc2c(-c3ccccc3)cc(C#N)c(Br)c2C1` [Compound 175], the inhibition at 50 µM is below 25%.

Take `CNN=C1C(=O)Nc2c1cc(-c1ccccc1)c1c2CN(C)CC1` [Compound 108]: the inhibition at 50 µM is below 25%.

`COc1ccc(F)cc1-c1cc(C#N)c(N2C(=O)CCC2=O)c2c1CCN(C)C2` [Compound 211]: the inhibition at 50 µM was below 25%.

Take `CCOC(C)O/N=C1/C(=O)Nc2c1cc(-c1ccccc1)c1c2CN(C)CC1` (centres unmarked) [Compound 63]: the inhibition at 50 µM was in the range of 30 to 50%.

For `CC(=O)OCCOCO/N=C1/C(=O)Nc2c1cc(-c1ccccc1)c1c2CN(C)CC1` [Compound 64], the inhibition at 50 µM is below 25%.

Regarding `COc1ccc(F)cc1Oc1ccc([N+](=O)[O-])c2cnccc12` [Compound 8], the inhibition at 50 µM was below 25%.

`CC(=O)NN=C1C(=O)Nc2c1cc(-c1ccccc1)c1c2CN(C)CC1` [Compound 112]: the inhibition at 50 µM was below 25%.

`CN1CCc2c(-c3ccccc3)ccc(CNC(=O)c3ccccc3)c2C1` [Compound 116]: the inhibition at 50 µM is below 25%.

On to `CC(C)(C)OC(=O)N1CCc2c(-c3ccccc3)ccc(NCC(=O)Oc3ccccc3)c2C1` [Compound 170], for which the inhibition at 50 µM is below 25%.

With `COc1ccc(F)cc1Oc1cc2c(c3c1CCN(C)C3)NC(=O)/C2=N/O` [Compound 12], the inhibition at 50 µM lay in the range of 50 to 70%.

In the case of `CCN(CC)C(=O)c1cc(-c2cc(F)ccc2OC)cc(C)c1NC(=O)N1CCN(C(C)C)CC1` [Compound 193, 4-Isopropyl-piperazine-1-carboxylic acid (5-diethylcarbamoyl-5′-fluoro-2′-methoxy-3-methyl-biphenyl-4-yl)-amide], the inhibition at 50 µM is below 25%.

The same experiment, now with this note: 100 μM, Xenopus oocytes; read-out: % inh. at 100 μM (Xo).
For the compound `COCCOCO/N=C1/C(=O)Nc2c1cc(-c1ccccc1)c1c2CN(C)CC1` [Compound 62], the inhibition at 100 µM is above 50%.

A further experiment deals with T1, ASIC1a. Kind of experiment: Calcium imaging of MES-induced calcium response (FLIPR). It counts as cell-based. Set-up: host or cells: HEK293. Particulars: ASIC1a expressing HEK293 cells, MES-induced calcium response; read-out: IC50 (FLIPR). As for the experimental part:
[…] Confluency of cells should be 80-90% on day of plating. Cells are rinsed with 10 ml of PBS and cells are re-suspended by addition of culture medium and trituration with a 25 ml pipette.
The cells are seeded at a density of approximately 1×10^6 cells/ml (100 μl/well) in black-walled, clear bottom, 96-well plates pre-treated with 10 mg/l poly-D-lysin (75 μl/well for ≧30 min). Plated cells are allowed to proliferate for 24 h before loading with dye.
Fluo-4/AM (1 mg, Molecular Probes) is dissolved in 912 μl DMSO. The Fluo-4/AM stock solution (1 mM) is diluted with culture medium to a final concentration of 2 μM (loading solution).
The culture medium is aspirated from the wells, and 50 μl of the Fluo-4/AM loading solution is added to each well. The cells are incubated at 37° C. for 30 min.
Following the second wash, 100 μl modified Assay Buffer is added to each well and the fluorescence is measured in FLIPR™ or FlexStation™ (Molecular Devices, USA), or any other suitable equipment known to the skilled in the art.
Temperature: Room temperature (20-22° C.)
First addition: 50 μl test solution at a rate of 30 μl/sec and a starting height of […]
Second addition: 50 μl MES solution (20 mM, 5 mM final concentration) at a rate of 35 μl/sec and a starting height of 150 μl.
Reading intervals: pre-incubation−10 sec×7 and 3 sec×3 antagonist phase−3 sec×7 and 10 sec×12
Addition plates (compound test plate and MES plate) are placed on the right and left positions in the FLIPR tray, respectively. Cell plates are placed in the middle position and the ASIC1a program is effectuated. FLIPR will then take the appropriate measurements in accordance with the interval settings above. Fluorescence obtained after stimulation is corrected for the mean basal fluorescence (in modified Assay Buffer).
The MES-induced peak calcium response, in the presence of test substance, is expressed relatively to the MES response alone. Test substances that block the MES-induced calcium response are re-tested in triplicates.
Turning to `CCc1ccccc1-c1cc2c(c3c1CCN(C)C3)NC(=O)/C2=N/O` [Compound 40], the IC50 is below 10 µM.

Turning to `C/C(=N\O)c1c2c(c(O)c3c1OCO3)CN(C)CC2` [Compound 57], the IC50 is above 70 µM.

`CCOC(=O)c1ccc(-c2cc3c(c4c2CCN(C)C4)NC(=O)C3=NO)cc1` [Compound 1, 4-(3-hydroxyimino-8-methyl-2-oxo-2,3,6,7,8,9-hexahydro-1H-pyrrolo[3,2-h]isoquinolin-5-yl)-benzoic acid ethyl ester]: the IC50 is above 70 µM.

For `CC(=O)Nc1c([N+](=O)[O-])cc(-c2ccccc2)c2c1CN(C)CC2` [Compound 154], the concentration for half-maximal inhibition (IC50) was above 70 µM.

On to `CN1CCc2c(-c3cccc(Cl)c3)cc3c(c2C1)NC(=O)/C3=N\O` [Compound 35], for which the IC50 is below 10 µM.

For the compound `COc1c2c(c(C(C)=O)c3c1OCO3)CCN(C)C2` [Compound 33], the IC50 was above 70 µM.

As to `Cc1cc(F)ccc1-c1cc2c(c3c1CCN(C)C3)NC(=O)/C2=N/O` [Compound 52], the IC50 was above 70 µM.

With `CN1CCc2c(-c3ccccc3)ccc(NC(=O)CC(=O)O)c2C1` [Compound 153], the IC50 is above 70 µM.

As for `CN1CCc2c(-c3cccc(C(F)(F)F)c3)cc3c(c2C1)NC(=O)/C3=N/O` [Compound 49], the 50% inhibitory concentration (IC50) is above 70 µM.

Regarding `CN1CCc2c(-c3ccc(S(=O)(=O)N4CCCCC4)cc3)cc3c(c2C1)NC(=O)C3=NO` [Compound 5, 8-Methyl-5-[4-(piperidine-1-sulfonyl)-phenyl]-6,7,8,9-tetrahydro-1H-pyrrolo[3,2-h]isoquinoline-2,3-dione 3-oxime], the IC50 was below 25 µM.

In the case of `CCN1CCc2c(-c3ccccc3)cc3c(c2C1)N(CC(=O)OC)C(=O)C3=NO` [Compound 73, (8-Ethyl-3-hydroxyimino-2-oxo-5-phenyl-2,3,6,7,8,9-hexahydro-pyrrolo[3,2-h]isoquinolin-1-yl)-acetic acid methyl ester], the IC50 was below 20 µM.

For the compound `CN1CCc2c(-c3ccccc3Cl)cc3c(c2C1)NC(=O)/C3=N/O` [Compound 22], the IC50 is 35 to 45 µM.

As for `CN1CCc2c(-c3cccc(OC(F)(F)F)c3)cc3c(c2C1)NC(=O)/C3=N/O` [Compound 51], the IC50 was above 70 µM.
